Measured values as given in patent EP4810038A1, “METHOD FOR TREATING ALK-POSITIVE OR ROS1-POSITIVE NON-SMALL CELL LUNG CANCER” (Shenzhen TargetRx Co., Ltd., priority 2023, dated 2025).
Like-named read-outs stand apart in the source and are kept apart here.

Assay: Phase I clinical trial: pharmacokinetics after single and multiple oral administrations
Type: in vivo, human
Conditions: for AR / Cmax / AUC / AUC(0-inf) / AUC(0-t) / half-life: GM (%CV); for Cmax / Tmax / AUC / AUC(0-inf) / AUC(0-t) / half-life: human, plasma, oral; for Tmax: Median (min-max); for AUC: read-out: AUC0-τ
Excerpt: The PK parameters for single-dose administration mainly include peak concentration (Cmax), time to peak concentration (Tmax), half-life (T1/2), systemic clearance (CL), volume of distribution (Vd), AUC0-t, and AUC0-∞. The PK parameters for multiple-dose administration mainly include the area under the steady-state plasma concentration-time curve (AUCss), steady-state peak plasma concentration (Cmax, ss), steady-state trough plasma concentration (Cmin, ss), and steady-state time to peak plasma concentration (Tmax, ss).
Approximately eight dose groups in total were set in the dose escalation phase, which were 5 (the starting dose), 10, 20, 40, 60, 80, 100, and 125 mg, respectively. Subjects in all the dose groups received a single dose on day 1 (D1), and the blood samples were collected for pharmacokinetic (PK) assay and tolerability observation. If no grade 2 or a higher-level adverse event related to the investigational drug occurred during the single-dose period (5 to 7 days) (if such events occurred, dose adjustments would be made based on the toxicity according to the protocol), the subject entered the multiple-dose period (i.e., treatment period) 5 to 7 days later (7 days after the first administration in the first dose group (i.e., starting the multiple-dose treatment on day 8), and the intervals for the subsequent dose groups were determined based on the obtained tolerability and PK data). After entering the multiple-dose period, the subjects in the first dose group were initially administered with the drug once daily (QD) (if the PK data for the single-dose period had been obtained, the administration frequency for the multiple-dose period could be determined based on the PK data). The administration frequency for the subjects in the subsequent dose groups after entering the multiple-dose period was determined based on the obtained PK and tolerability data. In this trial, the administration frequency for all the subjects could be adjusted throughout the trial based on the continuously acquired safety and PK data. The four lower dose groups (5 mg, 10 mg, 20 mg and 40 mg) used an accelerated titration design, with one subject enrolled in each dose group. If any grade 2 or a higher-level adverse event related to the investigational drug occurred, the "3+3" dose escalation method would be switched to. The 60 mg dose group and the subsequent dose groups followed a "3+3" dose escalation method, and the MTD was determined. After the evaluation of the 8th dose group, if the researcher and the sponsor agreed that a higher dose group might have better efficacy and manageable safety, then a higher dose could be explored (e.g., the 9th dose group and the 10th dose group, at 150 mg and 180 mg, respectively). During the dose escalation, if a dose group was confirmed to have a preliminary antitumor effect and manageable safety (e.g., no DLT occurred in 3 subjects or only 1 out of 6 subjects experienced DLT), the dose level could be expanded after a discussion and confirmation by the researcher and the sponsor.
All the subjects in the dose escalation phase and dose expansion phase of this research needed to undergo intensive blood collection for PK study of the compound A, and all the subjects needed to undergo a population PK study of the compound A.

[1] = Multiple administrations, 40 mg
[2] = Multiple administrations, 60 mg
[3] = Multiple administrations, 80 mg
[4] = Multiple administrations, 100 mg
[5] = Multiple administrations, 125 mg

## [2H]C([2H])([2H])n1nc2c(c1C#N)-c1cnc(N)c(c1)O[C@H](C)c1cc(F)ccc1C(=O)N(C)C2 [compound A, (10R)-7-amino-12-fluoro-2-(methyl-d3)-10,16-dimethyl-15-oxo-10,15,16,17-tetrahydro-2H-8,4-(metheno)pyrazolo[4,3-h][2,5,11]benzoxadiazacyclotetradecine-3-carbonitrile]
[1]
  AR: 1.044(25 .1) [3]
  AUC: 3880 ng·h/mL
[2]
  AR: 0.913(44.1 ) [3]
  AUC: 5440 ng·h/mL
[3]
  AR: 1.256(45.9) [4]
  AUC: 5500 ng·h/mL
[4]
  AR: 0.732(6 6.4) [3]
  AUC: 7020 ng·h/mL
[5]
  AR: 0.606(36. 1) [3]
  AUC: 7700 ng·h/mL
40 mg, Multiple administrations, 40 mg, read-out: Cmax, SS
  Cmax: 387 ng/mL
40 mg, Multiple administrations
  Tmax: 1 h
40 mg, Single administration, 40 mg, read-out: Cmax
  Cmax: 392 ng/mL
40 mg, Single administration
  Tmax: 0.98 h
60 mg, Multiple administrations, 60 mg, read-out: Cmax, SS
  Cmax: 644 ng/mL
60 mg, Multiple administrations
  Tmax: 0.533 h
60 mg, Single administration, 60 mg, read-out: Cmax
  Cmax: 875 ng/mL
60 mg, Single administration
  Tmax: 0.5 h
80 mg, Multiple administrations, 80 mg, read-out: Cmax, SS
  Cmax: 589 ng/mL
80 mg, Multiple administrations
  Tmax: 1.56 h
80 mg, Single administration, 80 mg, read-out: Cmax
  Cmax: 524 ng/mL
80 mg, Single administration
  Tmax: 0.7 h
100 mg, Multiple administrations, 100 mg, read-out: Cmax, SS
  Cmax: 798 ng/mL
100 mg, Multiple administrations
  Tmax: 1.97 h
100 mg, Single administration, 100 mg, read-out: Cmax
  Cmax: 774 ng/mL
100 mg, Single administration
  Tmax: 1.02 h
125 mg, Multiple administrations, 125 mg, read-out: Cmax, SS
  Cmax: 987 ng/mL
125 mg, Multiple administrations
  Tmax: 0.5 h
125 mg, Single administration, 125 mg, read-out: Cmax
  Cmax: 1260 ng/mL
125 mg, Single administration
  Tmax: 1.02 h
Single administration, 40 mg
  AUC(0-inf): 4710 ng·h/mL
  AUC(0-t): 4440 ng·h/mL
  half-life: 27.8 h
Single administration, 60 mg
  AUC(0-inf): 12200 ng·h/mL
  AUC(0-t): 11300 ng·h/mL
  half-life: 33.6 h
Single administration, 80 mg
  AUC(0-inf): 10100 ng·h/mL
  AUC(0-t): 9140 ng·h/mL
  half-life: 34.2 h
Single administration, 100 mg
  AUC(0-inf): 14600 ng·h/mL
  AUC(0-t): 13800 ng·h/mL
  half-life: 30.5 h
Single administration, 125 mg
  AUC(0-inf): 18700 ng·h/mL
  AUC(0-t): 17800 ng·h/mL
  half-life: 29.2 h
